{"source": "patent US20250340946A1", "about": "“METHOD OF PROGNOSING AND TREATING GLIOMA” (Agency for Science, Technology and Research, priority 2022, published 2025)", "key": {"[1]": {"test_system": "LOC expression in mIDH1 (IDH1 R132H/WT) LN18 cells", "assay": "qPCR of LOC expression in mIDH1 cells", "type": "cell-based, human", "from_the_text": "FIG. 6: LOC: DHX15 serves as a targetable vulnerability in wtIDH1 high-grade glioma. A) LOC expression in different IDH mutation status across different WHO grade gliomas based on RNA-seq data from CGGA. B) qPCR of LOC expression in wtIDH1 LN18 cells or mIDH1 clones. Those clones were generated by base editing. C) qPCR of LOC expression in wtIDH1 and mIDH1 LN18 cells treated with or without mIDH1 inhibitor AGI-5198. D) qPCR of LOC expression in wtIDH1 and mIDH1 LN18 cells with or without DMNT inhibitor 5-Azac treatment. E) Protein lysates from wtIDH1 and mIDH1 LN18 cells were analyzed for levels of phosphorylated and total p65 and p38 proteins by western blot. F) wtIDH1 and mIDH1 LN18 cells were transfected with empty vector (EV) or expression vectors of LOC or mutant version of LOC (LOC-M2). After 48 hours cells were harvested and endogenous DHX15 or p65 was immunoprecipitated with antibody against DHX15 or p65. IP samples were analyzed by subsequent immunoblot for the indicated proteins at indicated time points. G-H) Cell viability assay of wtIDH1 G) and mIDH1 LN18 cells H) treated with or without DHX inhibitor. I) Fluorescence imaging of wtIDH1 and mIDH1 GBM orthotopic xenograft models with or without DHX inhibitor treatment. J) Quantification of tumor signal intensity obtained from I). […]"}, "GBM cells": {"test_system": "GBM cells", "assay": "Cell viability, RNA helicase inhibitors alone or with TMZ (FIG. 9)", "type": "cell-based", "details": "for synergy on cell viability: combination therapy with TMZ; for cell viability: single agent"}}, "data": [{"compound": "Nc1ncn([C@@H]2O[C@H](CO)[C@@H](O)[C@H]2O)c(=O)n1", "note": "[5-AzaC, 5-Azacytidine]", "values": [{"measurement": "IDH1 mutation induced hypermethylation phenotype (diminished LOC expression)", "setting": "[1]; DNA methyltransferase inhibitor treatment, FIG. 6D", "value": "abrogate this hypermethylation phenotype"}]}, {"compound": "COc1ccc([C@@]23Oc4cc(OC)cc(OC)c4[C@]2(O)[C@H](O)[C@H](C(=O)N(C)C)[C@H]3c2ccccc2)cc1", "note": "[Rocaglamide]", "values": [{"measurement": "synergy on cell viability", "setting": "GBM cells", "value": "does not show synergistic inhibition of cell viability"}, {"measurement": "cell viability", "setting": "GBM cells", "value": "inhibition of cell viability"}]}, {"compound": "Cc1ccccc1C(C(=O)NC1CCCCC1)N(C(=O)Cn1ccnc1C)c1cccc(F)c1", "note": "(stereo not drawn) [selective mutant IDH1^R132H inhibitor]", "values": [{"measurement": "LOC expression", "setting": "[1]; IDH1 R132H/WT cells, mIDH1 inhibitor treatment, FIG. 6C", "value": "restored the LOC expression"}]}, {"compound": "RK-33", "values": [{"measurement": "synergy on cell viability", "setting": "GBM cells", "value": "does not show synergistic inhibition of cell viability"}, {"measurement": "cell viability", "setting": "GBM cells", "value": "inhibition of cell viability"}]}]}
